Patent publication US6479435B1, “Diaryl ethers and processes for their preparation and herbicidal and desiccant compositions containing them” (ISK Americas Incorporated, priority 1997, dated 2002)

What was measured:
Format in all cases: in vivo
[1] = tested on: Johnsongrass (Sorghum halepense, SORHA); test: Pre-emerge greenhouse herbicide test, phytotoxicity rating; details: 14 days after application, rating scale 0-100
How it was run: (§1)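 Visual 0–100 injury rating (100 = all plants dead) taken 14 days after treatment. Rates of 125–1000 g ai/ha in acetone, 187 l/ha, were sprayed onto soil one day post-sowing; pots were surface-watered to incorporate, then bottom-watered.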

[2] = tested on: barnyardgrass (Echinochloa crusgalli, ECHCG); test: as above; details: 14 days after application, rating scale 0-100
How it was run: as §1

[3] = tested on: common ragweed (Ambrosia artemisiifolia L., AMBEL); test: as above; details: 14 days after application, rating scale 0-100
How it was run: as §1

[4] = tested on: green foxtail (Setaria viridis, SETVI); test: as above; details: 14 days after application, rating scale 0-100
How it was run: as §1

[5] = tested on: ivyleaf morningglory (Ipomoea hederacea, IPOHE); test: as above; details: 14 days after application, rating scale 0-100
How it was run: as §1

[6] = tested on: lambsquarters (Chenopodium album, CHEAL); test: as above; details: 14 days after application, rating scale 0-100
How it was run: as §1

[7] = tested on: large crabgrass (Digitaria sanguinalis, DIGSA); test: as above; details: 14 days after application, rating scale 0-100
How it was run: as §1

[8] = tested on: redroot pigweed (Amaranthus retroflexus, AMARE); test: as above; details: 14 days after application, rating scale 0-100
How it was run: as §1

[9] = tested on: sicklepod (Cassia obtusifolia, CASOB); test: as above; details: 14 days after application, rating scale 0-100
How it was run: as §1

[10] = tested on: velvetleaf (Abutilon theophrasti, ABUTH); test: as above; details: 14 days after application, rating scale 0-100
How it was run: as §1

[11] = tested on: field corn (Zea mays L., var. Dekalb 535, CORN); test: Pre-emerge greenhouse test, crop damage rating; details: 14 days after application, rating scale 0-100
How it was run: as §1

[12] = tested on: upland rice (Oryza sp., var.Tebonnet, RICE); test: Pre-emerge greenhouse test, crop damage rating; details: 14 days after application, rating scale 0-100
How it was run: as §1

[13] = tested on: soybean (Glycine max L., var. Pella 86, SOY); test: Pre-emerge greenhouse test, crop damage rating; details: 14 days after application, rating scale 0-100
How it was run: as §1

[14] = tested on: common ragweed (Ambrosia artemisiifolia L., AMBEL); test: Post-emerge greenhouse herbicide test, phytotoxicity rating; details: 14 days after application
How it was run: (§2)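 Scores use a 0 (no damage) to 100 (complete kill) scale, taken 14 days after a foliar spray. Acetone solutions with 0.25% v/v non-ionic surfactant were applied by track sprayer at 187 l/ha and 63-1000 g ai/ha to bottom-watered 2-3 leaf plants.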

[15] = tested on: Johnsongrass (Sorghum halepense, SORHA); test: as above; details: 14 days after application
How it was run: as §2

[16] = tested on: barnyardgrass (Echinochloa crusgalli, ECHCG); test: as above; details: 14 days after application
How it was run: as §2

[17] = tested on: green foxtail (Setaria viridis, SETVI); test: as above; details: 14 days after application
How it was run: as §2

[18] = tested on: ivyleaf morningglory (Ipomoea hederacea, IPOHE); test: as above; details: 14 days after application
How it was run: as §2

[19] = tested on: lambsquarters (Chenopodium album, CHEAL); test: as above; details: 14 days after application
How it was run: as §2

[20] = tested on: large crabgrass (Digitaria sanguinalis, DIGSA); test: as above; details: 14 days after application
How it was run: as §2

[21] = tested on: redroot pigweed (Amaranthus retroflexus, AMARE); test: as above; details: 14 days after application
How it was run: as §2

[22] = tested on: sicklepod (Cassia obtusifolia, CASOB); test: as above; details: 14 days after application
How it was run: as §2

[23] = tested on: velvetleaf (Abutilon theophrasti, ABUTH); test: as above; details: 14 days after application
How it was run: as §2

[24] = tested on: field corn (Zea mays L., var. Dekalb 535, CORN); test: Post-emerge greenhouse test, crop damage rating; details: 14 days after application
How it was run: as §2

[25] = tested on: upland rice (Oryza sp., var.Tebonnet, RICE); test: Post-emerge greenhouse test, crop damage rating; details: 14 days after application
How it was run: as §2

[26] = tested on: soybean (Glycine max L., var. Pella 86, SOY); test: Post-emerge greenhouse test, crop damage rating; details: 14 days after application
How it was run: as §2

Compound: O=c1sc(=Nc2cc(Oc3ncccn3)c(Cl)cc2F)n2n1CCCC2 [Compound 7-2]
- phytotoxicity rating SORHA ([1]; 125 g ai/ha): 95
- phytotoxicity rating SORHA ([1]; 500 g ai/ha): 100
- phytotoxicity rating ECHCG ([2]; 125 g ai/ha): 99
- phytotoxicity rating ECHCG ([2]; 500 g ai/ha): 100
- phytotoxicity rating AMBEL ([3]; 125 g ai/ha): 100
- phytotoxicity rating AMBEL ([3]; 500 g ai/ha): 100
- phytotoxicity rating SETVI ([4]; 125 g ai/ha): 100
- phytotoxicity rating SETVI ([4]; 500 g ai/ha): 100
- phytotoxicity rating IPOHE ([5]; 125 g ai/ha): 100
- phytotoxicity rating IPOHE ([5]; 500 g ai/ha): 100
- phytotoxicity rating CHEAL ([6]; 125 g ai/ha): 100
- phytotoxicity rating CHEAL ([6]; 500 g ai/ha): 100
- phytotoxicity rating DIGSA ([7]; 125 g ai/ha): 100
- phytotoxicity rating DIGSA ([7]; 500 g ai/ha): 100
- phytotoxicity rating AMARE ([8]; 125 g ai/ha): 100
- phytotoxicity rating AMARE ([8]; 500 g ai/ha): 100
- phytotoxicity rating CASOB ([9]; 125 g ai/ha): 60
- phytotoxicity rating CASOB ([9]; 500 g ai/ha): 100
- phytotoxicity rating ABUTH ([10]; 125 g ai/ha): 100
- phytotoxicity rating ABUTH ([10]; 500 g ai/ha): 100
- crop damage rating CORN ([11]; 125 g ai/ha): 45
- crop damage rating CORN ([11]; 500 g ai/ha): 70
- crop damage rating RICE ([12]; 125 g ai/ha): 90
- crop damage rating RICE ([12]; 500 g ai/ha): 100
- crop damage rating SOY ([13]; 125 g ai/ha): 0
- crop damage rating SOY ([13]; 500 g ai/ha): 80
- AMBEL phytotoxicity rating (0-100) ([14]; 63 g al/ha): 100
- AMBEL phytotoxicity rating (0-100) ([14]; 500 g al/ha): 100
- SORHA phytotoxicity rating (0-100) ([15]; 63 g al/ha): 60
- SORHA phytotoxicity rating (0-100) ([15]; 500 g al/ha): 100
- ECHCG phytotoxicity rating (0-100) ([16]; 63 g al/ha): 40
- ECHCG phytotoxicity rating (0-100) ([16]; 500 g al/ha): 95
- SETVI phytotoxicity rating (0-100) ([17]; 63 g al/ha): 90
- SETVI phytotoxicity rating (0-100) ([17]; 500 g al/ha): 100
- IPOHE phytotoxicity rating (0-100) ([18]; 63 g al/ha): 100
- IPOHE phytotoxicity rating (0-100) ([18]; 500 g al/ha): 100
- CHEAL phytotoxicity rating (0-100) ([19]; 63 g al/ha): 100
- CHEAL phytotoxicity rating (0-100) ([19]; 500 g al/ha): 100
- DIGSA phytotoxicity rating (0-100) ([20]; 63 g al/ha): 30
- DIGSA phytotoxicity rating (0-100) ([20]; 500 g al/ha): 85
- AMARE phytotoxicity rating (0-100) ([21]; 63 g al/ha): 100
- AMARE phytotoxicity rating (0-100) ([21]; 500 g al/ha): 100
- CASOB phytotoxicity rating (0-100) ([22]; 63 g al/ha): 100
- CASOB phytotoxicity rating (0-100) ([22]; 500 g al/ha): 100
- ABUTH phytotoxicity rating (0-100) ([23]; 63 g al/ha): 100
- ABUTH phytotoxicity rating (0-100) ([23]; 500 g al/ha): 100
- CORN crop damage rating (0-100) ([24]; 63 g al/ha): 35
- CORN crop damage rating (0-100) ([24]; 500 g al/ha): 90
- RICE crop damage rating (0-100) ([25]; 63 g al/ha): 80
- RICE crop damage rating (0-100) ([25]; 500 g al/ha): 95
- SOY crop damage rating (0-100) ([26]; 63 g al/ha): 95
- SOY crop damage rating (0-100) ([26]; 500 g al/ha): 100

Compound: Nc1ccc(Oc2cc(-n3c(=O)n4n(c3=S)CCCC4)c(F)cc2Cl)cc1 [Compound 8-9]
- phytotoxicity rating SORHA ([1]; 125 g ai/ha): 0
- phytotoxicity rating SORHA ([1]; 500 g ai/ha): 0
- phytotoxicity rating ECHCG ([2]; 125 g ai/ha): 0
- phytotoxicity rating ECHCG ([2]; 500 g ai/ha): 0
- phytotoxicity rating AMBEL ([3]; 125 g ai/ha): 30
- phytotoxicity rating AMBEL ([3]; 500 g ai/ha): 30
- phytotoxicity rating SETVI ([4]; 125 g ai/ha): 0
- phytotoxicity rating SETVI ([4]; 500 g ai/ha): 30
- phytotoxicity rating IPOHE ([5]; 125 g ai/ha): 0
- phytotoxicity rating IPOHE ([5]; 500 g ai/ha): 10
- phytotoxicity rating CHEAL ([6]; 125 g ai/ha): 70
- phytotoxicity rating CHEAL ([6]; 500 g ai/ha): 100
- phytotoxicity rating DIGSA ([7]; 125 g ai/ha): 0
- phytotoxicity rating DIGSA ([7]; 500 g ai/ha): 0
- phytotoxicity rating AMARE ([8]; 125 g ai/ha): 100
- phytotoxicity rating AMARE ([8]; 500 g ai/ha): 95
- phytotoxicity rating CASOB ([9]; 125 g ai/ha): 0
- phytotoxicity rating CASOB ([9]; 500 g ai/ha): 40
- phytotoxicity rating ABUTH ([10]; 125 g ai/ha): 60
- phytotoxicity rating ABUTH ([10]; 500 g ai/ha): 100
- crop damage rating CORN ([11]; 125 g ai/ha): 0
- crop damage rating CORN ([11]; 500 g ai/ha): 0
- crop damage rating RICE ([12]; 125 g ai/ha): 0
- crop damage rating RICE ([12]; 500 g ai/ha): 0
- crop damage rating SOY ([13]; 125 g ai/ha): 0
- crop damage rating SOY ([13]; 500 g ai/ha): 0
- AMBEL phytotoxicity rating (0-100) ([14]; 63 g al/ha): 30
- AMBEL phytotoxicity rating (0-100) ([14]; 500 g al/ha): 80
- SORHA phytotoxicity rating (0-100) ([15]; 63 g al/ha): 0
- SORHA phytotoxicity rating (0-100) ([15]; 500 g al/ha): 30
- ECHCG phytotoxicity rating (0-100) ([16]; 63 g al/ha): 0
- ECHCG phytotoxicity rating (0-100) ([16]; 500 g al/ha): 0
- SETVI phytotoxicity rating (0-100) ([17]; 63 g al/ha): 0
- SETVI phytotoxicity rating (0-100) ([17]; 500 g al/ha): 30
- IPOHE phytotoxicity rating (0-100) ([18]; 63 g al/ha): 40
- IPOHE phytotoxicity rating (0-100) ([18]; 500 g al/ha): 100
- CHEAL phytotoxicity rating (0-100) ([19]; 63 g al/ha): 60
- CHEAL phytotoxicity rating (0-100) ([19]; 500 g al/ha): 95
- DIGSA phytotoxicity rating (0-100) ([20]; 63 g al/ha): 0
- DIGSA phytotoxicity rating (0-100) ([20]; 500 g al/ha): 10
- AMARE phytotoxicity rating (0-100) ([21]; 63 g al/ha): 90
- AMARE phytotoxicity rating (0-100) ([21]; 500 g al/ha): 100
- CASOB phytotoxicity rating (0-100) ([22]; 63 g al/ha): 0
- CASOB phytotoxicity rating (0-100) ([22]; 500 g al/ha): 100
- ABUTH phytotoxicity rating (0-100) ([23]; 63 g al/ha): 50
- ABUTH phytotoxicity rating (0-100) ([23]; 500 g al/ha): 100
- CORN crop damage rating (0-100) ([24]; 63 g al/ha): 0
- CORN crop damage rating (0-100) ([24]; 500 g al/ha): 10
- RICE crop damage rating (0-100) ([25]; 63 g al/ha): 0
- RICE crop damage rating (0-100) ([25]; 500 g al/ha): 0
- SOY crop damage rating (0-100) ([26]; 63 g al/ha): 20
- SOY crop damage rating (0-100) ([26]; 500 g al/ha): 70
